From patent US8192962B2, “Processes for detecting toxic substances” (Daikin Industries, Ltd., priority 2001, dated 2012)

Tested on: Stress protein genes
Assay: DNA chip mRNA expression in yeast, stress protein genes (Table 6)
Type: cell-based, Saccharomyces cerevisiae S288C
Procedure: Yeast (Saccharomyces cerevisiae S288C (α SUC2mal mel gap2 CUP1)) were incubated at 25° C. on YPD medium (yeast extract 1%, polypepton 2%, glucose 2%). One of toxic chemical substances was added to the cells at logarithmic growth phase, and the cells were further incubated for two hours. Cells were cultured without any chemical substance in the same condition, and were used as control. Concentrations of the chemical substances were defined to inhibit the growth of the yeast but not lead to death.
After completion of the incubation, the culture was centrifuged to collect the cells. To the cells, sodium acetate buffer (50 mM sodium acetate, 10 mM EDTA, 1% SDS) was added, and the mixture was shaken at 65° C. for five minutes, followed by returning to room temperature, and obtaining the supernatant, of which the procedures were repeated two times. To the supernatant, ½ amount of a solution of phenol/chloroform was added, and the mixture was centrifuged to give a supernatant, which was added with an equal amount of chloroform, and the mixture was centrifuged to give a supernatant. To the supernatant, an equal amount of isopropanol containing 0.3 M sodium acetate was added, and the mixture was allowed to stand at room temperature for 30 minutes, after which the mixture was centrifuged to give a sediment of the whole RNAs. Seventy % ethanol was added to the sediment, and the mixture was again centrifuged to give a sediment, which was then dried and dissolved in water. mRNA was isolated from the whole RNAs as followings. In view of the fact that a poly A chain is attached to the 3′ terminus of mRNA, a polynucleotide having a poly T structure which was immobilized on the surface of latex beads was used to trap the mRNA, and then the mRNA was washed and eluted with spine column (Oligotex-dT30<Super>mRNA Purification Kit, Takara). Reverse transcription of the mRNA was conducted with a reverse transcriptase (Super Script II Reverse Transcriptase; catalogue No. 18064-014, GibcoBRL) using fluorescence-labeled nucleotides to give cDNAs that were introduced with Cy3-dUTP or Cy5-dUTP during the reverse transcription.
The labeled cDNAs were dissolved in TE buffer (10mM Tris-HCl/1 mM EDTA, pH8.0), and the solution was dropped on the DNA chip containing the whole genes of yeast (DNA Chip Research Inc. Japan) so that the cDNAs were hybridized on the DNA chip at 65° C. for over 12 hours. The fluoresces intensity of the DNA chip was read with a scanner, and the ratio relative to the fluorescence intensity resulting from the absence of chemical substance was estimated as the following, which is shown in Tables 1 to 9: […]

[Cl][Pb][Cl] [(4), PbCl2]
The level of expressed mRNA in the presence of chemical substance/The level of expressed mRNA in the absence of chemical substance (yeast gene YAL005C): 0.9
The level of expressed mRNA in the presence of chemical substance/The level of expressed mRNA in the absence of chemical substance (yeast gene YAL015C): 1.9
The level of expressed mRNA in the presence of chemical substance/The level of expressed mRNA in the absence of chemical substance (yeast gene YBL075C): 1.6
The level of expressed mRNA in the presence of chemical substance/The level of expressed mRNA in the absence of chemical substance (yeast gene YBL093C): 1.4
The level of expressed mRNA in the presence of chemical substance/The level of expressed mRNA in the absence of chemical substance (yeast gene YBR044C): 1.9
The level of expressed mRNA in the presence of chemical substance/The level of expressed mRNA in the absence of chemical substance (yeast gene YBR054W): 1.7
The level of expressed mRNA in the presence of chemical substance/The level of expressed mRNA in the absence of chemical substance (yeast gene YBR067C): 0.9
The level of expressed mRNA in the presence of chemical substance/The level of expressed mRNA in the absence of chemical substance (yeast gene YBR072W): 10.5
The level of expressed mRNA in the presence of chemical substance/The level of expressed mRNA in the absence of chemical substance (yeast gene YBR126C): 1.2
The level of expressed mRNA in the presence of chemical substance/The level of expressed mRNA in the absence of chemical substance (yeast gene YBR169C): 1.9
The level of expressed mRNA in the presence of chemical substance/The level of expressed mRNA in the absence of chemical substance (yeast gene YCL035C): 1.7
The level of expressed mRNA in the presence of chemical substance/The level of expressed mRNA in the absence of chemical substance (yeast gene YCR021C): 8.6
The level of expressed mRNA in the presence of chemical substance/The level of expressed mRNA in the absence of chemical substance (yeast gene YCR083W): 1.8
The level of expressed mRNA in the presence of chemical substance/The level of expressed mRNA in the absence of chemical substance (yeast gene YDL022W): 1.5
The level of expressed mRNA in the presence of chemical substance/The level of expressed mRNA in the absence of chemical substance (yeast gene YDL025C): 1.5
The level of expressed mRNA in the presence of chemical substance/The level of expressed mRNA in the absence of chemical substance (yeast gene YDR033W): 1.5
The level of expressed mRNA in the presence of chemical substance/The level of expressed mRNA in the absence of chemical substance (yeast gene YDR077W): 2.1
The level of expressed mRNA in the presence of chemical substance/The level of expressed mRNA in the absence of chemical substance (yeast gene YDR098C): 0.8
The level of expressed mRNA in the presence of chemical substance/The level of expressed mRNA in the absence of chemical substance (yeast gene YDR155C): 1.8
The level of expressed mRNA in the presence of chemical substance/The level of expressed mRNA in the absence of chemical substance (yeast gene YDR258C): 1.4
The level of expressed mRNA in the presence of chemical substance/The level of expressed mRNA in the absence of chemical substance (yeast gene YDR293C): 1.4
The level of expressed mRNA in the presence of chemical substance/The level of expressed mRNA in the absence of chemical substance (yeast gene YDR436W): 1.4
The level of expressed mRNA in the presence of chemical substance/The level of expressed mRNA in the absence of chemical substance (yeast gene YDR513W): 2.6
The level of expressed mRNA in the presence of chemical substance/The level of expressed mRNA in the absence of chemical substance (yeast gene YDR519W): 1.6
The level of expressed mRNA in the presence of chemical substance/The level of expressed mRNA in the absence of chemical substance (yeast gene YEL030W): 1.1
The level of expressed mRNA in the presence of chemical substance/The level of expressed mRNA in the absence of chemical substance (yeast gene YEL039C): 5.1
The level of expressed mRNA in the presence of chemical substance/The level of expressed mRNA in the absence of chemical substance (yeast gene YER042W): 1.0
The level of expressed mRNA in the presence of chemical substance/The level of expressed mRNA in the absence of chemical substance (yeast gene YER057C): 1.8
The level of expressed mRNA in the presence of chemical substance/The level of expressed mRNA in the absence of chemical substance (yeast gene YER103W): 2.1
The level of expressed mRNA in the presence of chemical substance/The level of expressed mRNA in the absence of chemical substance (yeast gene YER125W): 0.9
The level of expressed mRNA in the presence of chemical substance/The level of expressed mRNA in the absence of chemical substance (yeast gene YFL014W): 11.0
The level of expressed mRNA in the presence of chemical substance/The level of expressed mRNA in the absence of chemical substance (yeast gene YFL016C): 0.9
The level of expressed mRNA in the presence of chemical substance/The level of expressed mRNA in the absence of chemical substance (yeast gene YFL020C): 1.2
The level of expressed mRNA in the presence of chemical substance/The level of expressed mRNA in the absence of chemical substance (yeast gene YFR052W): 1.5
The level of expressed mRNA in the presence of chemical substance/The level of expressed mRNA in the absence of chemical substance (yeast gene YGL073W): 1.0
The level of expressed mRNA in the presence of chemical substance/The level of expressed mRNA in the absence of chemical substance (yeast gene YGL115W): 2.0
The level of expressed mRNA in the presence of chemical substance/The level of expressed mRNA in the absence of chemical substance (yeast gene YGL181W): 1.1
The level of expressed mRNA in the presence of chemical substance/The level of expressed mRNA in the absence of chemical substance (yeast gene YGR088W): 2.4
The level of expressed mRNA in the presence of chemical substance/The level of expressed mRNA in the absence of chemical substance (yeast gene YHL028W): 0.5
The level of expressed mRNA in the presence of chemical substance/The level of expressed mRNA in the absence of chemical substance (yeast gene YHL046C): 1.3
The level of expressed mRNA in the presence of chemical substance/The level of expressed mRNA in the absence of chemical substance (yeast gene YHR030C): 2.9
The level of expressed mRNA in the presence of chemical substance/The level of expressed mRNA in the absence of chemical substance (yeast gene YHR057C): 0.9
The level of expressed mRNA in the presence of chemical substance/The level of expressed mRNA in the absence of chemical substance (yeast gene YHR104W): 1.9
The level of expressed mRNA in the presence of chemical substance/The level of expressed mRNA in the absence of chemical substance (yeast gene YIL011W): 0.6
